The numbers were not newly measured in US20240130371A1, “ENVIRONMENTAL PROTECTION SYSTEMS AND METHODS OF GREENHOUSE GAS CAPTURE VIA CALCIUM HYDROXIDE” (priority 2021, published 2024), which cites them from elsewhere.

For this data set the following is noted: common coronavirus killers.

With `CC(C)O` [isopropyl alcohol], the pH entry is recorded as “around 8”.
